Data published in patent US8188148B2, “Substituted 1,3-diphenylpropane derivatives, preparations and uses thereof” (Genfit, priority 2006, dated 2012).

Tests used:
[1] = tested on: PPARs target genes (PDK4, ApoCIII); assay: Hepatic gene expression by quantitative RT-PCR in E2/E2 mouse; assay type: in vivo; details: E2/E2 mouse, 5, 10, and 50 mpk, 8 days, normalized to 36B4
Method: The effectiveness of the compounds according to the invention is also evaluated by measuring, in the hepatic tissue, the expression of genes involved in lipid and/or glucid metabolism and in energy dissipation. Each level of gene expression is normalized regarding the expression level of the reference gene 36B4. The induction factor, i.e. the ratio between the relative signal (induced by the compound according to the invention) and the average of the relative values obtained with the control group, is then calculated. The higher the induction factor is, the more the compound promotes hepatic gene expression. […]
The agonist properties of PPARα previously measured in vitro should, in the liver, lead to an over-expression of the target genes directly under the control of the PPARα. […]
Gene expression analysis by quantitative RT-PCR Total RNA is extracted from liver fragments by using a NucleoSpin® 96 RNA kit (Macherey Nagel, Hoerdt, France) according to the manufacturer's instructions.
1 μg of total RNA (quantified by using the Ribogreen RNA quantification kit (Molecular Probes)) is then reverse-transcribed into complementary DNA by means of a 1 hour reaction at 37° C. in a total volume of 20 μl containing a 1× buffer (Sigma), 1.5 mM of DTT, 0.18 mM of dNTPs (Promega), 200 ng of pdN6 (Amersham), 30 U of RNase inhibitor (Sigma), and 1 μl of MMLV-RT (Sigma). […]

[2] = tested on: PPARs target genes (PDK4, ApoCIII); assay: Hepatic gene expression by quantitative RT-PCR in C57BI6 mouse; assay type: in vivo; details: C57BI6 mouse, 3, 10, and 30 mpk, 14 days, normalized to 36B4
Method: The effectiveness of the compounds according to the invention is also evaluated by measuring, in hepatic tissue, the expression of the genes involved in lipid metabolism. Each level of gene expression is normalized regarding the expression level of the reference gene 36B4. The induction factor is then calculated. The higher the induction factor is, the more the compound promotes hepatic gene expression. […]
Total RNA was extracted from liver fragments by using a NucleoSpin® 96 RNA kit (Macherey Nagel, Hoerdt, France) according to the manufacturer's instructions. 1 μg of total RNA (quantified by spectrophotometry) was then reverse-transcripted into cDNA by means of a 1 hour reaction at 37° C. in a total volume of 20 μl containing a 1× buffer (Sigma), 1.5 mM of DTT, 0.18 mM of dNTPs (Promega), 200 ng of pdN6 (Amersham), 30 U of RNase inhibitor (Sigma), and 1 μl of MMLV-RT (Sigma).
The PCR quantitative experiments were carried out using the MyiQ Single-Color Real-Time PCR Detection System (Biorad, Marnes-la-Coquette, France) and were performed using the iQ SYBR Green Supermix kit according to the provider's recommendations, in 96-well plates in 5 μl of a diluted reverse transcription solution and at a hybridization temperature of 55° C. […]
The amount of fluorescence emitted is directly proportional to the amount of cDNA present at the beginning of the reaction and amplified during the PCR. […]

SMILES: Cc1cc(CCC(=O)c2ccc(OC(F)(F)F)cc2)cc(C)c1OC(C)(C)C(=O)O [Compound 1, 2-[2,6-dimethyl-4-[3-[4-(trifluoromethyloxy)phenyl]-3-oxo-propyl]phenoxy]-2-methyl-propanoic acid]
- hepatic expression of the gene coding for ApoCIII [1]: reduction
- hepatic expression of the gene coding for PDK4 [1]: significant increase
- hepatic expression of the gene coding for ApoCIII [2]: reduction
- hepatic expression of the gene coding for PDK4 [2]: significant increase
